Laboratory results taken from US3985779A, “M-phenoxyphenyl propionic acid derivatives and preparation thereof” (Eisai Co., Ltd., priority 1973, dated 1976).

How the values were obtained:
[1] = tested on: stomachs of the rats; format: in vivo; settings: 100 mg/kg oral; score 0 (nothing unusual) to 10 (considerable irritability with bleeding)
Excerpt: Observation of gastric irritability
Gastric irritability due to oral administration of the compounds as edema inhibitory agent was studied by macroscopical observation of the dissected stomachs of the rats which had been employed for determination of the edema inhibitions mentioned in the preceding paragraphs. The degrees of the irritability observed were scored in the 0 to 10 ratings depending upon the extent of errosions and bleedings of the stomachs, wherein the rating of 0(zero) means "nothing unusual", the rating of 10 means a state of considerable gastric irritability with bleeding and the remainders mean the intermediate degree of gastric irritability.

[2] = in vivo; settings: mouse, po
Method: Comparison of toxicity of the phenyl propionic acid derivatives of the present invention and that of the other known anti-inflammatory agents was carried out in mice.

[3] = tested on: yeast-induced pyrexia; experiment: Antipyretic activity to the yeast-treated rats (Experiment I); format: in vivo, rats (Wistar strain male)
Method: To Wistar strain male rats having about 300 - 350 grs. body weight, an aqueous suspension of yeast was subcutaneously injected to induce pyrexia.
At the lapse of 4 hours since the dose of the yeast suspension, the compounds under test given in hereinaftermentioned Table 10 in a form of suspension in a 5% gum arabic aqueous solution are orally administered. The rectal temperatures of the rats were measured periodically by means of a thermister-type thermometer sold by Japan Koden K.K. As control, said 5% gum arabic aqueous solution alone was administered.

[4] = tested on: writhing syndrome; experiment: Analgesic activity: antagonism to acetic acid writhing syndrome in mice (Experiment J); format: in vivo, mice (dd strain male)
Method: Analgesic activity of the compound of the present invention in comparison with the known compounds.
Analgesic activity of the compound was tested as the measure of antagonism to writhing syndrome appeared when 0.1 ml/10g of 0.7% acetic acid was intraperitoneally injected to the dd strain male mice having 17 - 20 grs. body weight which had been abstinence from food for 18 hours.
The compounds under test were orally administered in a form of suspension in a 5% aqueous solution of gum arabic. After one hour from the administration, the onset times required for the writhing syndrome were scored.
In another Experiment in the combined use of the compounds under test and Codeine phosphate, 10 - 20 mg/kg of Codeine phosphate were orally administered immediatly after the oral administration of the compounds under test.

In the case of CC(=O)Oc1ccccc1C(=O)O [Aspirin], the “Degree of gastric irritability” value [1] is reported as 10, the LD50 [2] is reported as 1600 mg/kg and the “body temperature relative to normal (in words)” value ([3]; 320 mg/kg p.o.) is reported as “body temperature injuriously depressed below the normal body temperature”. For the same molecule, the “Change in rectal temperature, mean ± S.E.” value (shortened to “Change in rectal temperature”) ([3]; 1 hr, 80 mg/kg p.o.) was -0.18 ± 0.10, the “Change in rectal temperature” value ([3]; 1 hr, 160 mg/kg p.o.) was -0.48 ± 0.23 and the “Change in rectal temperature” value ([3]; 1 hr, 320 mg/kg p.o.) was -0.75 ± 0.10. For the same molecule, the “Change in rectal temperature” value ([3]; 3 hrs, 80 mg/kg p.o.) was -0.25 ± 0.18, the “Change in rectal temperature” value ([3]; 3 hrs, 160 mg/kg p.o.) was -1.05 ± 0.18 and the “Change in rectal temperature” value ([3]; 3 hrs, 320 mg/kg p.o.) was -1.68 ± 0.28. For the same molecule, the “Change in rectal temperature” value ([3]; 5 hrs, 80 mg/kg p.o.) was -0.20 ± 0.12, the “Change in rectal temperature” value ([3]; 5 hrs, 160 mg/kg p.o.) was -0.95 ± 0.18 and the “Change in rectal temperature” value ([3]; 5 hrs, 320 mg/kg p.o.) was -1.30 ± 0.29. For the same molecule, the “Onset time of writhing syndrome, mean ± S.E.” value (“Onset time” below) ([4]; 10 mg/kg p.o. combined with Codeine Phosphate 10 mg/kg) was 5.4 ± 0.4 min, the “Onset time” value ([4]; 10 mg/kg p.o. combined with Codeine Phosphate 20 mg/kg) was 9.6 ± 1.8 min and the “Onset time” value ([4]; 160 mg/kg p.o. combined with Codeine Phosphate 10 mg/kg) was 6.2 ± 0.6 min. The “Onset time” value ([4]; 160 mg/kg p.o. combined with Codeine Phosphate 20 mg/kg) was 11.1 ± 1.6 min, the minimal effective dose ([4]; Mus musculus, 1 h, single oral administration, read-out: dose with significant antagonism / retardation of writhing syndrome) was 160 mg/kg and the “Onset time” value ([4]; test compound alone, 10 mg/kg p.o.) was 5.2 ± 1.4 min. The “Onset time” value ([4]; test compound alone, 160 mg/kg p.o.) was 5.9 ± 0.8 min.
